Experimental data reported in patent US9974832B2, “Therapeutic effects of bryostatins, bryologs, and other related substances on head trauma-induced memory impairment and brain injury” (Cognitive Research Enterprises, Inc., priority 2007, dated 2018).

Tests used:
[1] = test system: head trauma-induced brain injury and memory impairment; experiment: minimal traumatic brain injury in mice, Morris Water Maze; assay type: in vivo; conditions: treatment started one hour after head trauma
Experimental: Minimal traumatic brain injury (TBI) was produced in mice by a concussive event using a 30 g mass. One hour post trauma, the mice received 20 or 30 μg bryostatin per kg doses by intraperitoneal injection. The injections were repeated twice weekly for a total of 5 treatments. The effects on learning and memory of bryostatin treatment in treated animals was tested in the Morris Water Maze.
The platform was removed and the animals were tested for how long they searched the correct quadrant versus the incorrect quadrants. In the passive avoidance procedure the animal remembers the distinctive environment in which a mild electric shock is delivered and avoids it on a second occasion.
Minimal traumatic brain injury (TBI) was produced in mice by a concussive event using a 30 g mass. One hour post trauma, the mice received 30 μg bryostatin per kg doses by intraperitoneal injection. The injections were repeated twice weekly for a total of 5 treatments. The escape latencies in a Morris Water Maze of mice treated with bryostatin after minimal TBI were compared to animals with minimal TBI, control animals receiving no TBI or bryostatin, and animals receiving bryostatin only.
Minimal traumatic brain injury (TBI) was produced in mice by a concussive event using a 30 g mass. One hour post trauma, the mice received 20 μg bryostatin per kg doses by intraperitoneal injection. […]

tumor promotion = conditions: cited from earlier work
[2] = in vivo; cited from earlier work
[3] = (−)-enantiomer; cited from earlier work
PKC [4] = conditions: read-out: affinity for PKC, A-ring bryologs; cited from earlier work
[5] = test system: murine leukemias and solid tumors; conditions: cited from earlier work
PKC [6] = conditions: K562 cells; cited from earlier work
[7] = test system: cyclin dependent kinase 2 (Cdk2); conditions: at 5 ng/ml; cited from earlier work
NCI 60 cell line screen = conditions: cited from earlier work
PKCϵ = biological target: T1, PKCϵ (Homo sapiens, UniProt Q02156); conditions: cited from earlier work
T1 sequence (Q02156 1-737): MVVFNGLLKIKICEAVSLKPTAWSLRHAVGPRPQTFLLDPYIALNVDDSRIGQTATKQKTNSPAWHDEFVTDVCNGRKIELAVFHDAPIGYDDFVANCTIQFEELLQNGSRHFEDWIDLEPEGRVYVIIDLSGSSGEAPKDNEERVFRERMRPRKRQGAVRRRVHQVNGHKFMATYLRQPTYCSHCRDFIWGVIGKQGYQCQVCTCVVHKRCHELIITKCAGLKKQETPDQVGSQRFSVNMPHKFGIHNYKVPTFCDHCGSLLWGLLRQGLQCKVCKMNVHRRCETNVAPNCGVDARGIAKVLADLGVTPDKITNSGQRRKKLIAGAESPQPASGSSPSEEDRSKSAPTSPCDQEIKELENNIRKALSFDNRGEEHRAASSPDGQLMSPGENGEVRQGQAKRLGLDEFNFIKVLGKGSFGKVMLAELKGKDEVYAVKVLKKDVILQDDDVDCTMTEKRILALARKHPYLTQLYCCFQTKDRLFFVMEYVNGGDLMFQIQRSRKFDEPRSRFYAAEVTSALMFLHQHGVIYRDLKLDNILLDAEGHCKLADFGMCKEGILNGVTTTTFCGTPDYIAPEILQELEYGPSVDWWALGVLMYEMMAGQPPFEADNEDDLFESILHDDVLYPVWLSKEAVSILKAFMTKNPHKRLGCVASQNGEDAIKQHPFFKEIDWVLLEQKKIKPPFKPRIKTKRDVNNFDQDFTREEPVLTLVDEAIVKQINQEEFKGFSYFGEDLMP

[8] = compared with phorbol; cited from earlier work
[9] = test system: squamous cell carcinoma and melanoma; conditions: used topically; cited from earlier work

CCCC=CC=CC(=O)OC1C(=CC(=O)OC)CC2CC(C(C)O)OC(=O)CC(O)CC3CC(OC(C)=O)C(C)(C)C(O)(CC4CC(=CC(=O)OC)CC(C=CC(C)(C)C1(O)O2)O4)O3 (stereo not drawn) [Bryostatin 1, bryostatin-1]
therapeutic effect on brain injury and memory impairment induced with head trauma [1]: therapeutic value against brain injury and memory impairment
tumor promotion activity (tumor promotion): devoid of tumor promotion activity
main adverse reaction in humans [2]: myalgia
tolerability of doses in humans [2]: well tolerated in humans

CCCCCCCCc1ccc2c3c(c[nH]c13)C[C@@H](CO)NC(=O)[C@H](C(C)C)N2C [Octylindolactam V]
metabolic stability [3]: greater metabolic stability

CCCCCCCC(=O)OC1C(=CC(=O)OC)CC2CC(CO)OC(=O)CC(O)CCOC(c3ccccc3)CC3CCOC(C=CC(C)(C)C1(O)O2)O3 (stereo not drawn) [bryolog 4]
Ki (PKC [4]): 2.3 nM

CCCCCCCC(=O)OC1C(=CC(=O)OC)CC2CC(CO)OC(=O)CC(O)CCOC(C(C)(C)C)CC3CCOC(C=CC(C)(C)C1(O)O2)O3 (stereo not drawn) [bryolog 3]
Ki (PKC [4]): 6.5 nM

C=C(C)[C@]12C[C@@H](COC(=O)c3ccccc3)[C@@]34OC5(O[C@@H]1[C@@H]3C1O[C@]1(CO)[C@@H](O)[C@@]1(O)[C@H]4[C@@H](C(C)CCCCCC[C@@H]5O)C(C)[C@@H]1OC(=O)c1ccccc1)O2 (stereo partly drawn) [Gnidimacrin]
concentrations with potent antitumor activity [5]: 0.1 to 1 nM
concentration at which it acts as a PKC activator (PKC [6]): ≈ 3 nM
inhibition of Cdk2 [7]: 100%

CCCCCCCC(=O)OC1C(=CC(=O)OC)CC2CC(CO)OC(=O)CC(O)CCOC(CCCc3ccc(Br)cc3)CC3CCOC(C=CC(C)(C)C1(O)O2)O3 (stereo not drawn) [bryolog 5]
Ki (PKC [4]): 1.9 nM

CC1=CC[C@H](C)C(C)(C)[C@@H]1/C=C/C(C)=C/CC[C@@]1(CO)[C@H](CCCO)/C(=C(/C)C=O)CC[C@]1(C)O [Iripallidal]
GI50 (concentration required to inhibit growth by 50%) (NCI 60 cell line screen): micromolar to nanomolar range

CCCCCC1CC1CC1CC1CCCCCCCC(=O)O (stereo not drawn) [DCP-LA, 2-[(2-pentylcyclopropyl)methyl]cyclopropaneoctanoic acid]
concentration of maximal effect (PKCϵ): 100 nM

Ingenol
toxicity [8]: much less toxicity

C/C=C(/C)C(=O)O[C@H]1C(C)=C[C@]23C(=O)[C@@H](C=C(CO)[C@@H](O)[C@]12O)[C@H]1[C@@H](C[C@H]3C)C1(C)C [Ingenol-3-angelate]
antitumor activity [9]: possesses antitumor activity
